“And” between values parts separate entries of the source, which are not always exact repeats. Equal values may be shown once. Inconclusive results and toxic doses are left out. Rule as the data show it: active = T/C of 150% or more; inactive = T/C below 125%.
System: L1210 leukemia ip in BDF1 mice, survival T/C
Test: NCI In Vivo Anticancer Drug Screen. Data for tumor model L1210 Leukemia (intraperitoneal) in B6D2F1 (BDF1) mice
Conditions: endpoint: mean survival time, higher = longer survival
Outline: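 Tumor cells were implanted, animals were treated, and survival was followed. The result divides the treated measurement by the vehicle-control measurement.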

[1] = dose: 100.0 mg/kg/injection, schedule: Q04DX003 (ip), vehicle: saline with Tween-80
[2] = dose: 200.0 mg/kg/injection, schedule: Q04DX003 (ip), vehicle: saline with Tween-80
[3] = dose: 400.0 mg/kg/injection, schedule: Q04DX003 (ip), vehicle: saline with Tween-80
[4] = dose: 100.0 mg/kg/injection, schedule: Q01DX009 (ip), vehicle: saline
[5] = dose: 200.0 mg/kg/injection, schedule: Q01DX009 (ip), vehicle: saline
[6] = dose: 100.0 mg/kg/injection, schedule: Q04DX003 (ip), vehicle: Klucel (hydroxypropylcellulose) (HPC)
[7] = dose: 200.0 mg/kg/injection, schedule: Q04DX003 (ip), vehicle: Klucel (hydroxypropylcellulose) (HPC)
[8] = dose: 400.0 mg/kg/injection, schedule: Q04DX003 (ip), vehicle: Klucel (hydroxypropylcellulose) (HPC)
[9] = dose: 100.0 mg/kg/injection, schedule: Q01DX009 (ip), vehicle: Klucel (hydroxypropylcellulose) (HPC)
[10] = dose: 200.0 mg/kg/injection, schedule: Q01DX009 (ip), vehicle: Klucel (hydroxypropylcellulose) (HPC)
[11] = dose: 400.0 mg/kg/injection, schedule: Q01DX009 (ip), vehicle: Klucel (hydroxypropylcellulose) (HPC)

Measured: T/C

CCCCCCCNc1ccc(S(=O)(=O)c2ccc(NCCCCCCC)c([N+](=O)[O-])c2)cc1[N+](=O)[O-]
inactive: dose: 25.0 mg/kg/injection, schedule: Q01DX009 (ip), vehicle: DMSO 94 % of control | dose: 50.0 mg/kg/injection, schedule: Q01DX009 (ip), vehicle: DMSO 98 % of control | dose: 100.0 mg/kg/injection, schedule: Q01DX005 (ip), vehicle: DMSO 90 % of control | dose: 100.0 mg/kg/injection, schedule: Q01DX009 (ip), vehicle: DMSO 94 % of control and 98 % of control | dose: 100.0 mg/kg/injection, schedule: Q04DX002 (ip), vehicle: DMSO 100 % of control | dose: 200.0 mg/kg/injection, schedule: Q01DX009 (ip), vehicle: DMSO 101 % of control | dose: 200.0 mg/kg/injection, schedule: Q04DX002 (ip), vehicle: DMSO 88 % of control | dose: 400.0 mg/kg/injection, schedule: Q01DX005 (ip), vehicle: DMSO 90 % of control | dose: 400.0 mg/kg/injection, schedule: Q01DX009 (ip), vehicle: DMSO 100 % of control | dose: 400.0 mg/kg/injection, schedule: Q04DX002 (ip), vehicle: DMSO 96 % of control

CCN(C(=O)c1ccc(C(=O)N(CC)c2ccccc2)cc1)c1ccccc1
inactive: [1] 96 % of control | [2] 91 % of control | [3] 91 % of control

C[N+](C)(C)CC(=O)[O-]
inactive: [4] 108 % of control | dose: 100.0 mg/kg/injection, schedule: Q04DX003 (ip), vehicle: saline 103 % of control | [5] 91 % of control | dose: 200.0 mg/kg/injection, schedule: Q04DX003 (ip), vehicle: saline 94 % of control

CSc1ncnc2c1ncn2/N=C/C1OC(C)OCC1O (configuration not stated)
inactive: [6] 93 % of control | [7] 98 % of control | [8] 98 % of control

COc1ccc(-c2c(C(=O)O)cccc2[N+](=O)[O-])c(OC)c1
inactive: dose: 100.0 mg/kg/injection, schedule: Q01DX003 (ip), vehicle: Klucel (hydroxypropylcellulose) (HPC) 98 % of control | dose: 200.0 mg/kg/injection, schedule: Q01DX003 (ip), vehicle: Klucel (hydroxypropylcellulose) (HPC) 91 % of control | dose: 400.0 mg/kg/injection, schedule: Q01DX003 (ip), vehicle: Klucel (hydroxypropylcellulose) (HPC) 86 % of control

COc1cccc2c1C(=O)c1c(O)c3c(c(O)c1C2=O)C[C@@](O)(/C(C)=N\NC(=O)CO)C[C@@H]3OC1CC(N)C(O)C(C)O1 (some centres not stated)
inactive: dose: 0.88 mg/kg/injection, schedule: Q04DX003 (ip), vehicle: saline 119 % of control | dose: 1.33 mg/kg/injection, schedule: Q04DX003 (ip), vehicle: saline 124 % of control | dose: 3.0 mg/kg/injection, schedule: Q04DX003 (ip), vehicle: saline 120 % of control | dose: 3.5 mg/kg/injection, schedule: Q01DX009 (ip), vehicle: saline 122 % of control | dose: 6.25 mg/kg/injection, schedule: Q01DX009 (ip), vehicle: saline 105 % of control | dose: 7.0 mg/kg/injection, schedule: Q01DX009 (ip), vehicle: saline 123 % of control | dose: 12.5 mg/kg/injection, schedule: Q01DX009 (ip), vehicle: saline 116 % of control | dose: 14.0 mg/kg/injection, schedule: Q01DX009 (ip), vehicle: saline 95 % of control and 99 % of control | dose: 14.0 mg/kg/injection, schedule: Q04DX003 (ip), vehicle: saline 108 % of control | dose: 16.0 mg/kg/injection, schedule: Q04DX003 (ip), vehicle: saline 112 % of control | dose: 25.0 mg/kg/injection, schedule: Q04DX003 (ip), vehicle: saline 102 % of control | dose: 32.0 mg/kg/injection, schedule: Q04DX003 (ip), vehicle: saline 111 % of control | dose: 50.0 mg/kg/injection, schedule: Q04DX003 (ip), vehicle: saline 91 % of control

CN(C)c1ccc(N=Nc2cccc(Cl)c2)cc1
inactive: [9] 97 % of control | [10] 97 % of control | [11] 90 % of control

Cc1cnc(-n2nc(-c3ccccc3)c3c2-c2ccccc2C3)nc1-c1ccccc1O
inactive: dose: 6.25 mg/kg/injection, schedule: Q01DX009 (ip), vehicle: Klucel (hydroxypropylcellulose) (HPC) 91 % of control | dose: 12.5 mg/kg/injection, schedule: Q01DX009 (ip), vehicle: Klucel (hydroxypropylcellulose) (HPC) 87 % of control

Cc1cccc(C)c1C(Cl)CS(=O)(=O)c1ccccc1 (configuration not stated)
inactive: [6] 102 % of control | [7] 107 % of control | [8] 107 % of control

Cc1[nH]c2ccccc2c1C(=O)Cc1ccc(Cl)cc1Cl
inactive: dose: 50.0 mg/kg/injection, schedule: Q01DX001 (ip), vehicle: saline 98 % of control | dose: 100.0 mg/kg/injection, schedule: Q01DX001 (ip), vehicle: saline 101 % of control | dose: 200.0 mg/kg/injection, schedule: Q01DX001 (ip), vehicle: saline 101 % of control | dose: 400.0 mg/kg/injection, schedule: Q01DX001 (ip), vehicle: saline 95 % of control

CCOC(=O)c1c(C)c2c(n1C)CCCC2O (configuration not stated)
inactive: dose: 100.0 mg/kg/injection, schedule: Q04DX003 (ip), vehicle: carboxymethylcellulose (CMC) 101 % of control | dose: 200.0 mg/kg/injection, schedule: Q04DX003 (ip), vehicle: carboxymethylcellulose (CMC) 98 % of control | dose: 400.0 mg/kg/injection, schedule: Q04DX003 (ip), vehicle: carboxymethylcellulose (CMC) 95 % of control

C=CCC1(C(=C)C)C(=O)NC(=O)NC1=O
inactive: dose: 75.0 mg/kg/injection, schedule: Q01DX001 (ip), vehicle: carboxymethylcellulose (CMC) 97 % of control | dose: 150.0 mg/kg/injection, schedule: Q01DX001 (ip), vehicle: carboxymethylcellulose (CMC) 93 % of control | dose: 300.0 mg/kg/injection, schedule: Q01DX001 (ip), vehicle: carboxymethylcellulose (CMC) 111 % of control

CCCCC(CC)CNCC(O)CNCC(CC)CCCC (configuration not stated)
inactive: dose: 50.0 mg/kg/injection, schedule: Q01DX009 (ip), vehicle: Klucel (hydroxypropylcellulose) (HPC) 88 % of control | dose: 100.0 mg/kg/injection, schedule: Q04DX002 (ip), vehicle: Klucel (hydroxypropylcellulose) (HPC) 108 % of control | dose: 200.0 mg/kg/injection, schedule: Q04DX002 (ip), vehicle: Klucel (hydroxypropylcellulose) (HPC) 101 % of control

CCCCCCCCCCCCNc1c(OCC)c(=O)c1=O
inactive: [6] 88 % of control | [7] 91 % of control | [8] 93 % of control

CC(=O)NC1C(O)C(NC(C)=O)C(OC(C)=O)C(OC(C)=O)C1OC(C)=O (configuration not stated)
inactive: [1] 95 % of control | [2] 101 % of control | [3] 94 % of control

COc1ccc([P+](=S)SS[P+](=S)c2ccc(OC)cc2)cc1 (configuration not stated)
inactive: dose: 100.0 mg/kg/injection, schedule: Q04DX002 (ip), vehicle: saline with Tween-80 101 % of control | dose: 200.0 mg/kg/injection, schedule: Q04DX002 (ip), vehicle: saline with Tween-80 97 % of control

CCn1ccc(=O)c2cc([N+](=O)[O-])ccc21
inactive: [9] 95 % of control | [6] 92 % of control | [10] 103 % of control | [7] 92 % of control | [11] 92 % of control | [8] 91 % of control

CC1(C)C(C)(C)C1(Cl)Cl
inactive: [4] 100 % of control | dose: 100.0 mg/kg/injection, schedule: Q04DX003 (sc), vehicle: olive oil, sesame oil, peanut oil 112 % of control | [5] 100 % of control | dose: 200.0 mg/kg/injection, schedule: Q04DX003 (sc), vehicle: olive oil, sesame oil, peanut oil 96 % of control | dose: 400.0 mg/kg/injection, schedule: Q01DX009 (ip), vehicle: saline 100 % of control | dose: 400.0 mg/kg/injection, schedule: Q04DX003 (sc), vehicle: olive oil, sesame oil, peanut oil 107 % of control

Source: PubChem BioAssay AID248 (DTP/NCI, 2004)
